Patent US20100305023A1, “Method of Delaying The Onset of Clinically Definite Multiple Sclerosis” (Teva Pharmaceutical Industries, Ltd., priority 2007, published 2010)
Read-outs that look alike come from different tables or passages of the source.

Legend:
[1] = system: patients presenting a clinically isolated syndrome (CIS); details: early treatment vs delayed start of treatment with GA
Procedure: A clinical trial was undertaken to assess, within the time frame of 5 years, the neuroprotective effect of early versus delayed treatment with GA as reflected by clinical and MRI parameters measuring the accumulated irreversible brain tissue damage.
Subjects are evaluated at study centers at baseline, at months 1, 3, and every 3 months thereafter. MRI evaluations of T1 and T2 variables are assessed at screening, baseline, at 3 months, and every 3 months thereafter until conversion to CDMS or up to 3 years. An additional MRI assessment is performed upon conversion to CDMS only if no MRI is performed within the previous month. MRI is then performed at the next scheduled visit and every 6 months thereafter.
Brain atrophy, as measured by the change in brain volume according to the Structural Image Evaluation of Normalized Atrophy (SIENA) technique is assessed at baseline, every 12 months and at conversion to CDMS.
The volume of black holes is assessed at baseline and at every 6 months.
The count of new T1-weighted hypointense lesions is assessed every 6 months.
Exploratory endpoints are defined to assess the neuroprotective effect as reflected by clinical and MRI parameters comparing the group originally assigned to GA treatment with that randomized to receive placebo treatment (delayed start of treatment with GA). The 5-year data cohort will be used for inference. […]

[2] = system: patients presenting a clinically isolated syndrome (CIS)
Procedure: A clinical trial was undertaken to assess, within the time frame of the up to 3-years placebo-controlled study period, the effect of GA on clinical and MRI parameters.
Subjects received their first dose of study medication at the baseline visit. 20 mg GA formulation was injected once daily by subcutaneous route via pre-filled syringe manufactured by Teva Pharmaceutical Industries Ltd., Israel. The duration of the double-blind phase is 36 months (3 years) or until subject's conversion to CDMS, whichever comes first.

[3] = system: subjects with clinically isolated syndrome (CIS) suggestive of MS; details: MRS, NAA/Cr over time
Procedure: Single voxel magnetic resonance spectroscopy (MRS) exams were performed at baseline and once a year subsequently. Scans were quantified locally and sent to the MRS Unit (Montreal) where they were deemed acceptable or in need of repeat (either acquisition or analysis). The MRS endpoint is the change in the ratio of N-acetylaspartate/creatine (NAA/Cr) ratio over time. NAA is seen only in neuronal tissue and is a marker of neuronal integrity; reducing with most types of insults to the brain. Cr is often used as an internal reference because it is relatively stable.
MRS scans were performed after T2-weighted fast-spin-time echo (FSE/TSE) scans and before gadolinium injection. MRS data was obtained from a region of central white matter using a 90-180-180 (PRESS) volume selective sequence to excite a volume of 100 mm×100 mm×20 mm (range 80-100 mm×80-100 mm×20 mm) centered on the body of the corpus callosum using a long echo time (TR 2000, TE 272). The rotation of the acquisition region was the same as for the main image series. […] The region was centered left-right so that the brain mid-line passes centrally through the region. The region was positioned anterior-posterior so that the anterior corners and posterior corners are equidistant from the skull.

[4] = system: patients presenting a clinically isolated syndrome (CIS); remark: listed apart in the source
Procedure: Subgroup analyses related to the primary efficacy variable were performed with respect to demographics and CIS characteristics at initial attack onset (gender, age, and type of unifocal manifestation and steroid treatment for the initial attack), and MRI findings (disease dissemination/activity) at study baseline.
No correction for multiplicity was done for any of the following post-hoc analyses. • 1. Subgroup analysis of the primary endpoint for: gender, age, type of unifocal manifestation and corticosteroid use for the initial attack employed the Cox proportional hazards model, as for the principal analysis. Subgroup analyses of proportion of subjects converted to CDMS according to MRI activity at baseline was analyzed using Logistic Regression, as in the fourth secondary endpoint. • 2. Number of relapses: analysis of number of relapses during the placebocontrolled phase, during the entire study and on a yearly basis was performed using the Poisson regression. • 3. Time to confirmed Expanded Disability Status Scale (EDSS) progression: Progression of disability was defined as worsening of at least 1 point in EDSS sustained over 2 consecutive measurements which are at least 6 months apart. Analysis of time to confirmed EDSS progression was performed employing the Cox proportional hazards model.
Subgroups were created for demographics and CIS characteristics at onset (gender, age, and type of unifocal presentation and steroid treatment for the initial attack), and MRI findings (disease dissemination/activity) at study baseline.

[5] = system: patients presenting a clinically isolated syndrome (CIS); remark: listed apart in the source
Procedure: A clinical trial was undertaken to assess the effect of treatment with GA compared to placebo on the time to conversion to CDMS, as determined by Poser (the occurrence of the second clinical attack) during the double-blind phase.
Subjects receive their first dose of study medication at the baseline visit. 20 mg GA formulation is injected once daily by subcutaneous route via pre-filled syringe manufactured by Teva Pharmaceutical Industries Ltd., Israel. Subjects are evaluated at study centers at baseline, at months 1, 3, and every 3 months thereafter.
The duration of the double-blind phase is 36 months (3 years) or until subject's conversion to CDMS, whichever comes first. Conversion to CDMS is counted when the subject's symptoms are accompanied by observed objective neurological changes, consistent with: • a) an increase of at least 0.5 in the EDSS score or one grade in the score of two or more of the seven Functional Systems (FS); or • b) two grades in the score of one of FS as compared to the previous evaluation.
The subject must not be undergoing any acute metabolic changes such as fever or other medical abnormality. A change in bowel/bladder function or in cognitive function must not be entirely responsible for the changes in EDSS or FS scores.

patients with RRMS = details: cited from earlier work
[6] = 20 mg once daily s.c. vs placebo

L-glutamic acid polymer with L-alanine, L-lysine, L-tyrosine, acetate (salt) [glatiramer acetate]
5-year relapse rate [1]: decreased
level of disability (EDSS Score) [1]: reduced
proportion of patients who convert to CDMS during the 5-year treatment period [1]: decreased
time from randomization to conversion to CDMS during the 5-year period [1]: increased
patients who developed CDMS at the end of the two-year study ([2]; 20 mg once daily s.c., placebo 43 percent): 25%
probability of development of CDMS over 3 years (Kaplan-Meier estimates) ([2]; 20 mg once daily s.c., placebo 65%): 36.4%
treatment effect in decreasing the rate of new T2 lesions at LOV ([2]; 20 mg vs placebo, last observed value): 58%
reduction of new T1 Gd-enhancing lesions in comparison to placebo, annual comparison ([2]; 12 months): > 4.8 fold
reduction of new T2 lesions in comparison to placebo, annual comparison ([2]; 12 months): 6 fold
reduction of new T2 lesions in comparison to placebo, annual comparison ([2]; 24 months): 4 fold
reduction of new lesions in comparison to placebo, annual comparison of T1 Gd-enhancing lesions ([2]; 24 months): approximately 3.8 fold
Number of new T2 lesions at LOV, max ([2]; GA 20 mg): 15
Number of new T2 lesions at LOV, median ([2]; GA 20 mg): 0
Number of new T2 lesions at LOV, min ([2]; GA 20 mg): 0
Number of new T2 lesions at LOV, mean ([2]; GA 20 mg, placebo 1.8): 0.7
reduction of new T1 Gd-enhancing lesions in comparison to placebo, annual comparison ([2]; ITT cohort, 12 months): > 4.5 fold
reduction of new T2 lesions in comparison to placebo, annual comparison ([2]; ITT cohort, 12 months): > 3 fold
reduction of new T2 lesions in comparison to placebo, annual comparison ([2]; ITT cohort, 24 months): approximately 4 fold
reduction of new lesions in comparison to placebo, annual comparison of T1 Gd-enhancing lesions ([2]; ITT cohort, 24 months): approximately 3 fold
reduction of the cumulative number of new T1 Gd-enhancing lesions at LOV compared to placebo ([2]; last observed value): 619
cumulative number of new T1 Gd-enhancing lesions at LOV ([2]; placebo 1.19): 0.46
axonal damage [3]: reduces
Risk Reduction with Copaxone over Placebo ([4]; Age <30 years, listed as Copaxone ®): 53%
Risk Reduction with Copaxone over Placebo ([4]; Age <30 years, listed as Copaxone®): 53%
% CDMS in the placebo-controlled phase ([4]; Age >=30 years): 15%
% CDMS in the placebo-controlled phase ([4]; Corticosteroids use for initial attack: No): 9%
Risk Reduction with Copaxone over Placebo ([4]; Corticosteroids use for initial attack: No, listed as Copaxone ®): 54%
Risk Reduction with Copaxone over Placebo ([4]; Corticosteroids use for initial attack: No, listed as Copaxone®): 54%
% CDMS in the placebo-controlled phase ([4]; Corticosteroids use for initial attack: Yes): 16%
% CDMS in the placebo-controlled phase ([4]; Sex: Female): 14%
Risk Reduction with Copaxone over Placebo ([4]; Sex: Female, listed as Copaxone ®): 48%
Risk Reduction with Copaxone over Placebo ([4]; Sex: Female, listed as Copaxone®): 48%
% CDMS in the placebo-controlled phase ([4]; Sex: Male): 11%
Risk Reduction with Copaxone over Placebo ([4]; Sex: Male, listed as Copaxone ®): 43%
Risk Reduction with Copaxone over Placebo ([4]; Sex: Male, listed as Copaxone®): 43%
% CDMS in the placebo-controlled phase ([4]; T1 Gd-enhancing lesions at baseline: T1 = 0 lesions): 14%
Risk Reduction with Copaxone over Placebo ([4]; T1 Gd-enhancing lesions at baseline: T1 = 0 lesions, listed as Copaxone ®): 44%
Risk Reduction with Copaxone over Placebo ([4]; T1 Gd-enhancing lesions at baseline: T1 = 0 lesions, listed as Copaxone®): 44%
% CDMS in the placebo-controlled phase ([4]; T1 Gd-enhancing lesions at baseline: T1 >= 1 lesions): 11%
Risk Reduction with Copaxone over Placebo ([4]; T1 Gd-enhancing lesions at baseline: T1 >= 1 lesions, listed as Copaxone ®): 71%
Risk Reduction with Copaxone over Placebo ([4]; T1 Gd-enhancing lesions at baseline: T1 >= 1 lesions, listed as Copaxone®): 71%
% CDMS in the placebo-controlled phase ([4]; T2 lesions at baseline: 2-8 lesions): 3%
Risk Reduction with Copaxone over Placebo ([4]; T2 lesions at baseline: 2-8 lesions, listed as Copaxone ®): 67%
Risk Reduction with Copaxone over Placebo ([4]; T2 lesions at baseline: 2-8 lesions, listed as Copaxone®): 67%
% CDMS in the placebo-controlled phase ([4]; T2 lesions at baseline: >=9 lesions): 22%
Risk Reduction with Copaxone over Placebo ([4]; T2 lesions at baseline: >=9 lesions, listed as Copaxone ®): 58%
Risk Reduction with Copaxone over Placebo ([4]; T2 lesions at baseline: >=9 lesions, listed as Copaxone®): 58%
% CDMS in the placebo-controlled phase ([4]; Unifocal manifestation: Optic): 6%
Risk Reduction with Copaxone over Placebo ([4]; Unifocal manifestation: Optic, listed as Copaxone ®): 66%
Risk Reduction with Copaxone over Placebo ([4]; Unifocal manifestation: Optic, listed as Copaxone®): 66%
% CDMS in the placebo-controlled phase ([4]; Unifocal manifestation: Spinal): 7%
Risk Reduction with Copaxone over Placebo ([4]; Unifocal manifestation: Spinal): 17%
prolongation of the quartile time to CDMS [5, 6]: 115%
reduction of the risk in developing clinically definite MS (CDMS) [5, 6]: 44%
Kaplan-Meier time to conversion to CDMS, 25% percentile ([5]; 20 mg once daily s.c., ITT, placebo 336 days): 722 days
total number of enhancing lesions as measured by MRI (patients with RRMS; 20 and 40 mg/day subcutaneous, MS patients): reduce
efficacy in reducing the frequency of relapses (patients with RRMS; patients with RRMS): well established
